# Results from US20030199540A1, “Fluoroalkyoxybenzylamino derivatives of nitrogen containing heterocycles” (priority 1991, published 2003).
row,melting point,Structure (SMILES)
1,238 to 239 °C,Cl.FC(F)Oc1ccc(OC(F)F)c(CN[C@H]2CCCN[C@H]2c2ccccc2)c1
2,263 to 264 °C (dec.),CC(C)(C)c1ccc(OC(F)F)c(CN[C@H]2CCCN[C@H]2c2ccccc2)c1.Cl
3,245 to 246 °C (dec.),CC(C)Oc1ccc(OC(F)(F)F)cc1CN[C@H]1CCCN[C@H]1c1ccccc1.Cl
4,245 to 247 °C (dec.),CC(C)c1ccc(OC(F)F)c(CN[C@H]2CCCN[C@H]2c2ccccc2)c1.Cl
5,> 275 °C,Cc1ccc(OC(F)F)c(CN[C@H]2CCCN[C@H]2c2ccccc2)c1.Cl

# The remaining lines, values behind:
row,Structure (SMILES),melting point
1,CC(C)(C)c1ccc(OC(F)(F)F)c(CN[C@H]2CCCN[C@H]2c2ccccc2)c1.Cl,262 to 264 °C
2,CC(C)c1ccc(OCC(F)(F)F)c(CN[C@H]2CCCN[C@H]2c2ccccc2)c1.Cl,> 280 °C
3,CCOc1ccc(OC(F)(F)F)cc1CN[C@H]1CCCN[C@H]1c1ccccc1.Cl,> 275 °C (dec.)
4,CC(=O)Nc1ccc(OCC(F)(F)F)c(CN[C@H]2CCCN[C@H]2c2ccccc2)c1.Cl,> 270 °C
5,Cl.FC(F)(F)Oc1ccccc1CN[C@H]1CCCN[C@H]1c1ccccc1,231 to 233 °C
